Test results as given in PubChem BioAssay (NCI).
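How tested: cells in 96-well plates exposed to compound for 48 hours at five concentrations. Abbreviation: GI50, concentration required for 50% inhibition of growth. The concentration for full growth arrest is given as TGI.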

How the values were obtained:
Assay in all cases: NCI tumour cell line growth inhibition, 48 h
[1] = test system: UO-31 renal
[2] = test system: SK-MEL-2 melanoma
[3] = test system: HCT-15 colon
[4] = test system: UACC-257 melanoma
[5] = test system: UACC-62 melanoma
[6] = test system: HCC-2998 colon
[7] = test system: KM12 colon
[8] = test system: 786-0 renal
[9] = test system: MALME-3M melanoma
[10] = test system: NCI-H522 lung
[11] = test system: TK-10 renal
[12] = test system: ACHN renal
[13] = test system: NCI/ADR-RES ovarian
[14] = test system: IGROV1 ovarian
[15] = test system: SNB-75 CNS
[16] = test system: MDA-MB-231 breast
[17] = test system: SK-MEL-5 melanoma
[18] = test system: NCI-H23 lung
[19] = test system: T-47D breast
[20] = test system: HOP-92 NSCLC
[21] = test system: SN12C renal
[22] = test system: SR leukemia
[23] = test system: U251 CNS
[24] = test system: SK-OV-3 ovarian
[25] = test system: CCRF-CEM leukemia
[26] = test system: K-562 leukemia
[27] = test system: HS 578T breast
[28] = test system: PC-3 prostate
[29] = test system: RXF 393 renal
[30] = test system: OVCAR-4 ovarian

Structure (SMILES): O=C1NC(=NC23CC4CC(CC(C4)C2)C3)N/C1=C\c1ccc2ncccc2n1
- TGI [1]: 1.97 µM
- GI50 [2]: 0.202 µM
- TGI [2]: 0.545 µM
- GI50 [3]: 0.389 µM
- TGI [3]: 6.88 µM
- GI50 [4]: 0.652 µM
- TGI [4]: 5.82 µM
- GI50 [5]: 0.226 µM
- TGI [5]: 0.739 µM
- GI50 [6]: 0.491 µM
- TGI [6]: 4.45 µM
- GI50 [7]: 0.683 µM
- TGI [7]: 9.84 µM
- GI50 [8]: 0.371 µM
- TGI [8]: 2.35 µM
- GI50 [9]: 0.147 µM
- TGI [9]: 0.897 µM
- GI50 [10]: 0.194 µM
- TGI [10]: 1.13 µM
- GI50 [11]: 0.328 µM
- TGI [11]: 6.57 µM
- GI50 [12]: 0.305 µM
- TGI [12]: 1.9 µM
- GI50 [13]: 1.82 µM
- TGI [13]: 7 µM
- GI50 [14]: 0.257 µM
- TGI [14]: 1.41 µM
- GI50 [15]: 0.0913 µM
- TGI [15]: 0.755 µM
- GI50 [16]: 0.557 µM
- TGI [16]: 4.82 µM
- GI50 [17]: 0.425 µM
- TGI [17]: 1.85 µM
- GI50 [18]: 0.283 µM
- TGI [18]: 1.08 µM
- GI50 [19]: 0.238 µM
- TGI [19]: 5.38 µM
- GI50 [20]: 0.222 µM
- TGI [20]: 1.76 µM
- GI50 [21]: 0.35 µM
- TGI [21]: 4.57 µM
- GI50 [22]: 0.224 µM
- TGI [22]: 0.779 µM
- GI50 [23]: 0.555 µM
- TGI [23]: 11.3 µM
- GI50 [24]: 0.245 µM
- TGI [24]: 1.4 µM
- GI50 [25]: 0.299 µM
- TGI [25]: 3.03 µM
- GI50 [26]: 0.546 µM
- TGI [26]: > 33.6 µM
- GI50 [27]: 0.222 µM
- TGI [27]: 1.23 µM
- GI50 [28]: 0.334 µM
- TGI [28]: 6.23 µM
- GI50 [29]: 0.239 µM
- TGI [29]: 0.995 µM
- GI50 [30]: 0.451 µM
- TGI [30]: 3.09 µM
